Source: US6458767B1, “Use of peptides inhibitory for thrombospondin dependent TGF-β activation in the treatment of kidney disease” (The UAB Research Foundation, priority 1994, dated 2002)

What was measured:
TSP1 null mice = settings: literature; cited from earlier work
TGF-β = assay: Glomerular secretion of active TGF-β (NRK-bioassay of supernatants of isolated glomeruli) in anti-Thy1 rats; format: in vivo, rat
From the text: (§1) Experimental design. Experimental mesangial proliferative glomerulonephritis was induced using the monoclonal mouse anti-Thy1 antibody OX-7. Peptides were continuously infused intravenously (i.v.) via jugular vein using osmotic minipumps starting sixteen hours after disease induction. The effects of the hexapeptide AAWSHW (SEQ ID NO:22) (that interferes with the TSP1-mature TGF-β interaction) or the LSKL-peptide (SEQ ID NO:21) (that blocks the TSP1-LAP interaction) were compared to a control peptide (SLLK) in the anti-Thy1 model. Tissues from different time points (days three, five, eight) of this experiment were analyzed in regard to mesangiolysis, macrophage-influx, MC-proliferation, MC-activation, microaneurysm and matrix formation, GEN proliferation, TSP1, TGF-β1 and 2, as well as TGF-βRI and RII. Functional parameters such as blood pressure, proteinuria, and creatinine clearance were also determined. On day eight, glomerular secretion of active TGF-β was determined in individual animals by incubating isolated glomeruli for twenty-four hours in DMEM and measuring TGF-β activity in glomerular supernatants using the NRK-bioassay.
(§2) Animal model Experimental mesangial proliferative glomerulonephritis (anti-Thy1 model) was induced in Sprague Dawley rats (180-200 g; Charles River, Sulzfeld, Germany) by a single injection of 1 mg/kg of the mouse monoclonal anti-Thy1 antibody OX-7 (European Collection of Animal Cell Culture, Salisbury, England). In this animal model, complete anti-Thy1 antibody binding occurs within an hour (Johnson et al. (1991) Am. J. Pathol. 138 (2), 313-21). To avoid potential interference of the LAP-peptides with anti-Thy1 antibody binding and subsequent mesangiolysis, the peptide treatment was started sixteen hours after disease induction, when binding of the anti-Thy1 antibody to the mesangium and subsequent mesangiolysis had already occurred. The peptides used in this study were synthesized, purified, and analyzed as described elsewhere (Crawford et al. (1998) Cell 93, 1159-1170).
Renal biopsies as described previously (Hugo et al. (1997) J. Clin. Invest. 100, 786-794) were performed on days three and five, and the experiment was finished on day eight. To determine DNA incorporation into proliferating cells, each animal was injected intravenously with BrdU (50 mg/kg bw) ninety minutes before the second survival biopsy was taken on day five (peak of MC proliferation). Renal biopsies were fixed in methyl Carnoy's, 10% formalin and/or OCT and snap frozen. A twenty-four hour urine collection for measurement of protein and creatinine was done from day seven to eight, when maximal proteinuria occurs in this model (unpublished observation). Blood pressure measurements were done twice before and twice after disease induction. In renal biopsies, the frequency of glomerular microaneurysms, the number of infiltrating macrophages, the number of proliferating MC, the expression of the contractile protein α-sm actin as a marker of MC-activation, and the expression of TGF-β1, TGF-β2, TGF-βRI, TGF-βRII, TSP1, as well as of extracellular matrix proteins such as collagen I, collagen IV and fibronectin were determined. For TGF-β activity measurements in individual animals on day eight, glomeruli were isolated by differential sieving (Johnson et al. (1991) Am. J. Pathol. 138 (2), 313-21) and counted using five aliquots. Glomerular isolates were discarded if purity was less than 95%. 8000 glomeruli/ml were incubated in DMEM at 37° C. […]

[1] = tested on: rats with anti-Thy1 disease; assay: Glomerular extracellular matrix formation (Masson's Trichrome, collagen I, collagen IV, fibronectin stains) in the anti-Thy1 model; format: in vivo, rat
From the text: as §1, §2
(§3) Renal biopsies as described previously (Hugo et al. (1997) J. Clin. Invest. 100, 786-794) were performed on days three and five, and the experiment was finished on day eight. To determine DNA incorporation into proliferating cells, each animal was injected intravenously with BrdU (50 mg/kg bw) ninety minutes before the second survival biopsy was taken on day five (peak of MC proliferation). Renal biopsies were fixed in methyl Carnoy's, 10% formalin and/or OCT and snap frozen. A twenty-four hour urine collection for measurement of protein and creatinine was done from day seven to eight, when maximal proteinuria occurs in this model (unpublished observation). Blood pressure measurements were done twice before and twice after disease induction. In renal biopsies, the frequency of glomerular microaneurysms, the number of infiltrating macrophages, the number of proliferating MC, the expression of the contractile protein α-sm actin as a marker of MC-activation, and the expression of TGF-β1, TGF-β2, TGF-βRI, TGF-βRII, TSP1, as well as of extracellular matrix proteins such as collagen I, collagen IV and fibronectin were determined. For TGF-β activity measurements in individual animals on day eight, glomeruli were isolated by differential sieving (Johnson et al. (1991) Am. J. Pathol. 138 (2), 313-21) and counted using five aliquots. Glomerular isolates were discarded if purity was less than 95%. 8000 glomeruli/ml were incubated in DMEM at 37° C. After a twenty-four hour incubation period, glomerular supernatants were stored by −70° C. until TGF-β activity measurements were done.
(§4) Peptide infusion. All peptides (at a concentration of 3.5 mg/ml) were continuously infused for seven days via a catheter in the right jugular vein using osmotic minipumps (Alzet Corp./Charles River, Sulzfeld, Germany). […]

[2] = tested on: rats with anti-Thy1 disease; assay: Glomerular immunostaining score for TGF-β1, TGF-β2, TGF-βRI, TGF-βRII and TSP1 in the anti-Thy1 model; format: in vivo, rat
From the text: as §1, §2, §3, §4

[3] = tested on: rats with anti-Thy1 disease; assay: Glomerular MC-proliferation, MC-activation and macrophage influx in the anti-Thy1 model; format: in vivo, rat
From the text: as §1, §2, §3, §4

[4] = tested on: rats with anti-Thy1 disease; assay: Mesangiolysis, microaneurysm formation and GEN-proliferation in the anti-Thy1 model; format: in vivo, rat
From the text: as §1, §2, §3, §4

[5] = tested on: rats with anti-Thy1 disease; assay: Functional parameters (proteinuria, creatinine clearance, blood urea nitrogen, systolic blood pressure) in the anti-Thy1 model; format: in vivo, rat
From the text: as §1, §2, §3, §4

[6] = tested on: activation of TGF-β by TSP1; settings: background, literature; cited from earlier work

KRFK: TGF-β activating peptide, KRFK amino acid sequence of the TSP1 molecule (listed as Homo sapiens)
histological changes in TSP1 null mice (TSP1 null mice): reverted toward wild type

Leu-Ser-Lys-Leu (LSKL; listed as Homo sapiens)
Active TGF-β (colonies > 62 um) (TGF-β; day 8 glomeruli, 24 h supernatant, NRK-bioassay, continuous i.v. peptide infusion): 154 ± 50 colonies > 62 um | glomerular secretion of active TGF-β compared to control peptide (SLLK) treated rats (TGF-β; day eight glomeruli, p<0.01): markedly reduced | Matrix Collagen 1 (score 0-4) ([1]; day 3): 0.1 ± 0.1 score 0-4 | Matrix Collagen IV (score 0-4) ([1]; day 3): 1.0 ± 0.2 score 0-4 | Matrix Fibronectin (score 0-4) ([1]; day 3): 1.2 ± 0.4 score 0-4 | Matrix Trichrome (score 0-3) ([1]; day 3): 0.4 ± 0.2 score 0-3 | Matrix Collagen 1 (score 0-4) ([1]; day 5): 0.7 ± 0.4 score 0-4 | Matrix Collagen IV (score 0-4) ([1]; day 5): 1.9 ± 0.3 score 0-4 | Matrix Fibronectin (score 0-4) ([1]; day 5): 1.9 ± 0.6 score 0-4 | Matrix Trichrome (score 0-3) ([1]; day 5): 0.7 ± 0.2 score 0-3 | Matrix Collagen 1 (score 0-4) ([1]; day 8): 0.8 ± 0.5 score 0-4 | Matrix Collagen IV (score 0-4) ([1]; day 8): 1.2 ± 0.4 score 0-4 | Matrix Fibronectin (score 0-4) ([1]; day 8): 0.9 ± 0.6 score 0-4 | Matrix Trichrome (score 0-3) ([1]; day 8): 1.2 ± 0.3 score 0-3 | extracellular matrix formation as determined by Trichrome staining ([1]; day eight, in words): markedly suppressed | glomerular accumulation of collagen I, collagen IV and fibronectin by immunohistochemistry ([1]; time course of anti-Thy1 disease, in words): reduced glomerular accumulation of all three extracellular matrix proteins | TGF-β1 (score 0-4) ([2]; day 3): 0.1 ± 0.1 score 0-4 | TGF-β2 (score 0-4) ([2]; day 3): 0.2 ± 0.1 score 0-4 | TGF-βRI (score 0-4) ([2]; day 3): 0.2 ± 0.2 score 0-4 | TGF-βRII (score 0-4) ([2]; day 3): 0.2 ± 0.1 score 0-4 | TSP I (score 0-4) ([2]; day 3): 0.3 ± 0.2 score 0-4 | TGF-β1 (score 0-4) ([2]; day 5): 1.8 ± 0.6 score 0-4 | TGF-β2 (score 0-4) ([2]; day 5): 1.2 ± 0.6 score 0-4 | TGF-βRI (score 0-4) ([2]; day 5): 1.4 ± 0.3 score 0-4 | TGF-βRII (score 0-4) ([2]; day 5): 1.3 ± 0.3 score 0-4 | TSP I (score 0-4) ([2]; day 5): 1.4 ± 0.6 score 0-4 | TGF-β1 (score 0-4) ([2]; day 8): 1.7 ± 0.6 score 0-4 | TGF-β2 (score 0-4) ([2]; day 8): 0.6 ± 0.6 score 0-4 | TGF-βRI (score 0-4) ([2]; day 8): 1.4 ± 0.4 score 0-4 | TGF-βRII (score 0-4) ([2]; day 8): 0.9 ± 0.6 score 0-4 | TSP I (score 0-4) ([2]; day 8): 0.5 ± 0.3 score 0-4 | MC-activation α-sm actin (score 0-4) ([3]; day 3): 0.6 ± 0.3 score 0-4 | MC-proliferation (OX-7 + /PCNA + cells/glomerulus) ([3]; day 3): 3.3 ± 0.6 cells/glomerulus | Macrophages (ED-1 + cells/glomerulus) ([3]; day 3): 4.3 ± 2.0 cells/glomerulus | MC-activation α-sm actin (score 0-4) ([3]; day 5): 2.5 ± 0.4 score 0-4 | MC-proliferation (OX-7 + /BrdU + cells/glomerulus) ([3]; day 5): 3.9 ± 0.6 cells/glomerulus | MC-proliferation (OX-7 + /PCNA + cells/glomerulus) ([3]; day 5): 7.9 ± 1.0 cells/glomerulus | Macrophages (ED-1 + cells/glomerulus) ([3]; day 5): 1.0 ± 0.6 cells/glomerulus | MC-activation α-sm actin (score 0-4) ([3]; day 8): 2.4 ± 0.5 score 0-4 | MC-proliferation (OX-7 + /PCNA + cells/glomerulus) ([3]; day 8): 4.6 ± 0.5 cells/glomerulus | Macrophages (ED-1 + cells/glomerulus) ([3]; day 8): 0.7 ± 0.5 cells/glomerulus | MC activation (de novo expression of α-sm-actin) ([3]; in words): did not significantly alter | Glomerular Microaneurysm (in percent) ([4]; day 3): 16.7 ± 10.0% | Glomerular Microaneurysm (in percent) ([4]; day 5): 13.8 ± 19.9% | Glomerular Microaneurysm (in percent) ([4]; day 8): 2.2 ± 2.7% | Glomerular GEN-proliferation (double staining for RECA-1 and PCNA) ([4]; day three): 2.0±0.5 | mesangiolysis scores ([4]; day three, scale 0-IV): 2.56±0.3 | Proteinuria (mg/24 hours) ([5]; day 8 (urine collection day seven to eight)): 24 ± 20 mg/24 hours | twenty-four hour proteinuria ([5]; days seven to eight): 24±20 mg/twenty-four hours | Blood urea nitrogen ([5]; rat, in vivo): 33.2 ± 9.4 mg/dL | block of activation of TGF-β by TSP1 [6]: able to block activation of TGF-β by TSP1
